Source: ChEMBL document CHEMBL1949505, “Total synthesis and structure-activity relationships of new echinocandin-like antifungal cyclolipohexapeptides” (2012)
In brackets after ≈: the same amount, converted by molar mass. Bridge positions count the residues as written; N and C are the ends. Square brackets hold non-standard residues; d marks the D form. Peptide text beside a SMILES is read from it. * marks the point of attachment. pTerphenylCO(4''-OnC5H11) = CCCCCOc1ccc(-c2ccc(-c3ccc(C(=O)*)cc3)cc2)cc1; 2Naphthoyl(6-heptyloxy) = CCCCCCCOc1ccc2cc(C(=O)*)ccc2c1; X1 = CCCOc1ccc(-c2ccc(-c3ccc(C(=O)*)cc3)cc2)cc1; Pro(4S-NH2) = N[C@@H]1CN[C@H](C(=O)O)C1; hTyr = N[C@@H](CCc1ccc(O)cc1)C(=O)O; Orn = NCCC[C@H](N)C(=O)O

Tests used:
Assay type in all cases: functional
Candida parapsilosis = experiment: Antifungal activity against Candida parapsilosis after 24 hrs by serial dilution method; conditions: Lodderomyces parapsilosis
Cryptococcus neoformans = experiment: Antifungal activity against Cryptococcus neoformans after 72 hrs by serial dilution method
Candida tropicalis = experiment: Antifungal activity against Candida tropicalis after 24 hrs by serial dilution method
Pichia kudriavzevii = experiment: Antifungal activity against Candida krusei after 24 hrs by serial dilution method
Candida albicans [1] = experiment: Ratio of caspofungin MIC to compound MIC for Candida albicans by serial dilution method
Aspergillus fumigatus = experiment: Antifungal activity against Aspergillus fumigatus after 7 days by serial dilution method; conditions: 168 h
Trichophyton rubrum = experiment: Antifungal activity against Trichophyton rubrum after 7 days by serial dilution method; conditions: 168 h
Candida albicans [2] = experiment: Antifungal activity against Candida albicans after 24 hrs by serial dilution method

Molecule `CCCOc1ccc(-c2ccc(-c3ccc(C(=O)N[C@H]4CCCNC(=O)[C@@H]5C[C@H](N)CN5C(=O)[C@H](CCCN)NC(=O)[C@H](CCc5ccc(O)cc5)NC(=O)[C@@H]5CCCN5C(=O)[C@H]([C@@H](C)O)NC4=O)cc3)cc2)cc1.Cc1ccc(S(=O)(=O)O)cc1` (X1-[Orn]TP[hTyr][Orn][Pro(4S-NH2)]; lactam 1-C) has an MIC80 (Candida parapsilosis) of 4 µg/mL, an MIC80 (Cryptococcus neoformans) of 32 µg/mL and an MIC80 (Candida tropicalis) of 8 µg/mL. It also gave an MIC80 (Pichia kudriavzevii) of 0.5 µg/mL, a Ratio (Candida albicans [1]) of 4 and an MIC80 (Aspergillus fumigatus) of 2 µg/mL. For the same molecule, the MIC80 (Trichophyton rubrum) was 64 µg/mL and the MIC80 (Candida albicans [2]) was 0.125 µg/mL.
`CCCCCCCOc1ccc2cc(C(=O)N[C@H]3CCCNC(=O)[C@@H]4C[C@H](N)CN4C(=O)[C@H](CCCCN)NC(=O)[C@H](CCc4ccc(O)cc4)NC(=O)[C@@H]4CCCN4C(=O)[C@H]([C@@H](C)O)NC3=O)ccc2c1.Cc1ccc(S(=O)(=O)O)cc1` ({2Naphthoyl(6-heptyloxy)}-[Orn]TP[hTyr]K[Pro(4S-NH2)]; lactam 1-C) showed an MIC80 (Candida parapsilosis) of 4 µg/mL, an MIC80 (Cryptococcus neoformans) of 64 µg/mL and an MIC80 (Candida tropicalis) of 16 µg/mL. For the same molecule, the MIC80 (Pichia kudriavzevii) was 0.5 µg/mL, the Ratio (Candida albicans [1]) was 4 and the MIC80 (Aspergillus fumigatus) was 1 µg/mL. It also gave an MIC80 (Trichophyton rubrum) of 32 µg/mL and an MIC80 (Candida albicans [2]) of 0.125 µg/mL.
`CCCCCOc1ccc(-c2ccc(-c3ccc(C(=O)N[C@H]4CCCNC(=O)[C@@H]5C[C@H](N)CN5C(=O)[C@H](CCCCN)NC(=O)[C@H](CCc5ccc(O)cc5)NC(=O)[C@@H]5CCCN5C(=O)[C@H]([C@@H](C)O)NC4=O)cc3)cc2)cc1.Cc1ccc(S(=O)(=O)O)cc1` ({pTerphenylCO(4''-OnC5H11)}-[Orn]TP[hTyr]K[Pro(4S-NH2)]; lactam 1-C) showed an MIC80 (Candida parapsilosis) of 2 µg/mL, an MIC80 (Cryptococcus neoformans) of 16 µg/mL and an MIC80 (Candida tropicalis) of 8 µg/mL. It also gave an MIC80 (Pichia kudriavzevii) of 1 µg/mL, an MIC80 (Aspergillus fumigatus) of 1 µg/mL and an MIC80 (Trichophyton rubrum) of 32 µg/mL. It also gave an MIC80 (Candida albicans [2]) of 0.5 µg/mL.
`CCCCCOc1ccc(-c2ccc(-c3ccc(C(=O)N[C@H]4CCCNC(=O)[C@@H]5C[C@H](N)CN5C(=O)[C@H](CCCN)NC(=O)[C@H](CCc5ccc(O)cc5)NC(=O)[C@@H]5CCCN5C(=O)[C@H]([C@@H](C)O)NC4=O)cc3)cc2)cc1.Cc1ccc(S(=O)(=O)O)cc1` ({pTerphenylCO(4''-OnC5H11)}-[Orn]TP[hTyr][Orn][Pro(4S-NH2)]; lactam 1-C) gave an MIC80 (Candida parapsilosis) of 8 µg/mL, an MIC80 (Cryptococcus neoformans) of 64 µg/mL and an MIC80 (Candida tropicalis) of 4 µg/mL. It also gave an MIC80 (Pichia kudriavzevii) of 0.5 µg/mL, an MIC80 (Aspergillus fumigatus) of 1 µg/mL and an MIC80 (Trichophyton rubrum) of 64 µg/mL. For the same molecule, the MIC80 (Candida albicans [2]) was 0.25 µg/mL.
For `CCCCCOc1ccc(-c2ccc(-c3ccc(C(=O)N[C@H]4CCCNC(=O)[C@@H]5C[C@H](N)CN5C(=O)[C@H](CCCCN)NC(=O)[C@H](CCc5ccc(O)cc5)NC(=O)[C@@H]5CCCN5C(=O)[C@H](C(C)C)NC4=O)cc3)cc2)cc1.Cc1ccc(S(=O)(=O)O)cc1` ({pTerphenylCO(4''-OnC5H11)}-[Orn]VP[hTyr]K[Pro(4S-NH2)]; lactam 1-C), the MIC80 (Candida parapsilosis) was 4 µg/mL, the MIC80 (Cryptococcus neoformans) was 32 µg/mL and the MIC80 (Candida tropicalis) was 16 µg/mL. For the same molecule, the MIC80 (Pichia kudriavzevii) was 2 µg/mL, the MIC80 (Aspergillus fumigatus) was 1 µg/mL and the MIC80 (Trichophyton rubrum) was 32 µg/mL. For the same molecule, the MIC80 (Candida albicans [2]) was 1 µg/mL.
`CCCCCOc1ccc(-c2ccc(-c3ccc(C(=O)N[C@H]4CCCNC(=O)[C@@H]5C[C@H](N)CN5C(=O)[C@H](CCCN)NC(=O)[C@H](CCc5ccc(O)cc5)NC(=O)[C@@H]5CCCN5C(=O)[C@H](C(C)C)NC4=O)cc3)cc2)cc1.Cc1ccc(S(=O)(=O)O)cc1` ({pTerphenylCO(4''-OnC5H11)}-[Orn]VP[hTyr][Orn][Pro(4S-NH2)]; lactam 1-C) was tested, and the MIC80 (Candida parapsilosis) was 4 µg/mL, the MIC80 (Cryptococcus neoformans) was 32 µg/mL and the MIC80 (Candida tropicalis) was 8 µg/mL. It also gave an MIC80 (Pichia kudriavzevii) of 2 µg/mL, an MIC80 (Aspergillus fumigatus) of 0.5 µg/mL and an MIC80 (Trichophyton rubrum) of 32 µg/mL. For the same molecule, the MIC80 (Candida albicans [2]) was 1 µg/mL.
For `CC[C@H](C)C[C@H](C)CCCCCCCCC(=O)N[C@H]1C[C@@H](O)[C@@H](NCCN)NC(=O)[C@@H]2[C@@H](O)CCN2C(=O)[C@H]([C@H](O)CCN)NC(=O)[C@H]([C@H](O)[C@@H](O)c2ccc(O)cc2)NC(=O)[C@@H]2C[C@@H](O)CN2C(=O)[C@H]([C@@H](C)O)NC1=O` [CASPOFUNGIN], the MIC80 (Candida parapsilosis) was 1 µg/mL (≈ 0.915 µM), the MIC80 (Cryptococcus neoformans) was 16 µg/mL (≈ 14.6 µM) and the MIC80 (Candida tropicalis) was 4 µg/mL (≈ 3.66 µM). For the same molecule, the MIC80 (Pichia kudriavzevii) was 0.25 µg/mL (≈ 0.229 µM), the MIC80 (Aspergillus fumigatus) was 1 µg/mL (≈ 0.915 µM) and the MIC80 (Trichophyton rubrum) was 16 µg/mL (≈ 14.6 µM). It also gave an MIC80 (Candida albicans [2]) of 0.5 µg/mL (≈ 0.457 µM).
